Results: PubChem BioAssay (NCI)
“And” between values parts separate entries of the source, which are not always exact repeats. Equal values may be shown once.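 96-well plates; 48 h exposure; 5 concentrations. Endpoints by linear interpolation between flanking doses. Not reached: highest tested concentration assigned. GI50 marks 50% less growth. TGI is the concentration that stops growth completely.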

Each molecule was assayed on MDA-MB-468 breast (assay: inhibition of tumour cell growth, NCI panel, 48 h).
Work on `COc1ccc(-c2coc3ncnc(N)c23)cc1` yielded a GI50 of over 25000 nM and a TGI of over 25000 nM.
Work on `COc1cccc(-c2nn(-c3ccccc3)cc2-c2ccnc(NCCNS(=O)(=O)c3ccc(C(F)(F)F)cc3)c2)c1` yielded a GI50 of 3310 nM and a TGI of 15100 nM.
In the case of `COc1cc2c(c(OC)c1OC)-c1ccc(OC)c(=O)cc1[C@@H](NC(=O)CCl)CC2`, the GI50 is reported as under 10 nM and the TGI is reported as under 10 nM.
With `COc1ccc(C(=O)/C=C/c2cc3ccccc3[nH]c2=O)cc1` the GI50 was 10500 nM and the TGI was 23100 nM.
With `CC(C)(Cl)CCC1=C(Cl)C(=O)c2ccccc2C1=O` the GI50 was 1500 nM and the TGI was 3490 nM.
Molecule `C#C[C@@]1(O)[C@@H](CO)O[C@@H](n2cc(Cl)c3c(N)ncnc32)[C@@H]1O` has a GI50 of 180 nM and a TGI of 451 nM.
In the case of `CCN1C(=O)N(CC)C2C1NN=c1s/c(=C3\C(=O)N(CCC(C)C)c4ccccc43)c(=O)n12` (stereo unspecified), the GI50 is reported as 283 nM and the TGI is reported as 720 nM.
`CN(C)CC/C=C1\c2ccccc2Sc2ccc(Cl)cc21` showed a GI50 of 1390 nM and a TGI of 3020 nM.
Molecule `Nc1nc(N)c2nc(CNc3ccc(C(=O)CC(CCC(=O)O)C(=O)O)cc3)cnc2n1` (stereo unspecified) has a GI50 of 208 nM and a TGI of 2340 nM.
`COc1cc2[nH]c(C(=O)c3cc(OC)c(OC)c(OC)c3)c(N)c2cc1C#CCO` showed a GI50 of 183 nM and a TGI of over 100000 nM.
For `CNC(=O)c1ccc(Nc2ncc(C(F)(F)F)c(NCc3nccnc3N(C)S(C)(=O)=O)n2)cc1`, the GI50 was 1590 nM and 2060 nM and 1980 nM and the TGI was 4990 nM and 5010 nM and 5290 nM.
With `CC(C)(C)c1cc(NC(=O)Nc2ccc(-c3cn4c5c(sc4n3)CCc3cn(CCCN4CCCCC4)cc3-5)cc2)no1` the GI50 was 1840 nM and the TGI was 3720 nM.
In the case of `COc1ccc(NC(=O)[C@H](C)NC(=O)OC(C)(C)C)cc1C(=O)Nc1cccc(-c2cc(=O)c3c(OC)c(OC)c(OC)cc3o2)c1`, the GI50 is reported as 2250 nM and the TGI is reported as 6280 nM.
`C[C@H](c1ccc(Cl)cc1N)N1C(=O)c2cc(I)ccc2N(CCCN2CCN(C)CC2)C(=O)[C@@H]1c1ccc(Cl)cc1` showed a GI50 of 1570 nM and a TGI of 3140 nM.
Work on `COc1ccc(OC)c(/C=C/c2nnc(Nc3ccc(Cl)cc3)o2)c1` yielded a GI50 of 16400 nM and a TGI of over 100000 nM.
Work on `Brc1cccc(/C=N/Nc2nc(N/N=C/c3cccc(Br)c3)nc(N3CCOCC3)n2)c1` yielded a GI50 of 1910 nM and a TGI of 6090 nM.
For `O=c1ncc(-c2ccc(C(F)(F)F)cc2)c(NC2CCCCCC2)[nH]1`, the GI50 was 21000 nM and the TGI was 51400 nM.
With `Cc1ccc(-c2csc(N(C(=O)N3CCN(c4cc5c(cc4F)c(=O)c(C(=O)O)cn5C4CC4)CC3)c3ccccc3)n2)cc1` the GI50 was 366 nM and the TGI was over 100000 nM.
Work on `CCCCCCCCN(CCCCCCCC)C(=N)c1ccnc2ccccc12` yielded a GI50 of 342 nM and a TGI of 1270 nM.
`CCC1CCc2nc3sc(C(=O)Nc4ccccc4F)c(N)c3cc2C1` (stereo unspecified) gave a GI50 of 347 nM and a TGI of over 100000 nM.
In the case of `CCOC(=O)[C@H](CSSc1ncnc2cc[nH]c12)NC(=O)[C@@H](C)c1ccc2cc(OC)ccc2c1`, the GI50 is reported as 179 nM and the TGI is reported as 91700 nM.
With `COc1cc2c(c(OC)c1OC)-c1ccc([O-])c(=O)cc1[C@@H](NC(C)=O)CC2.COc1cc2c(c(OC)c1OC)-c1ccc([O-])c(=O)cc1[C@@H](NC(C)=O)CC2.[Cu+2]` the GI50 was 4700 nM and the TGI was 43200 nM.
For `O=c1oc2ccc(Cl)cc2c(=O)n1-c1ccc(Cl)cc1F`, the GI50 was 382 nM and the TGI was 1870 nM.
With `CS(=O)(=O)c1ccc(N/N=C/c2c(-c3ccc(S(C)(=O)=O)cc3)[nH]c3ccc(F)cc23)cc1` the GI50 was 3490 nM and the TGI was over 50000 nM.
Work on `C/C(=C\c1ccn(-c2ccc(N)c(C(F)(F)F)c2)n1)[C@@H]1C[C@@H]2O[C@]2(C)CCC[C@H](C)[C@H](O)[C@@H](C)C(=O)C(C)(C)[C@@H](O)CC(=O)O1` yielded a GI50 of 10.6 nM and a TGI of 14200 nM.
With `COc1ccc(C(=S)c2cc(OC)c(OC)c(OC)c2)cc1OC(=O)CCl` the GI50 was 96.4 nM.
For `Nc1ccccc1NC(=O)c1ccc(CSc2nc(N3CCOCC3)c3cccn3n2)cc1`, the GI50 was 1720 nM and the TGI was 6470 nM.
With `CCN(Cc1ccc(F)cc1)c1ccc(CO)c(Cl)c1` the GI50 was 14.7 nM and the TGI was 33.2 nM.
In the case of `CS(=O)(=O)CCNCc1ccc(-c2ccc3ncnc(Nc4ccc(OCc5ccccc5)c(C(F)(F)F)c4)c3c2)o1`, the GI50 is reported as 1860 nM and the TGI is reported as 6400 nM.
`Nc1ncc(-c2cnn(C3CCNCC3)c2)cc1-c1nc2ccccc2o1` was tested, and the GI50 was 367 nM and the TGI was 2330 nM.
`CCCCCCCCCCCCCOC(=O)c1c(C)[nH]c(/C=C2\N=C(c3ccc[nH]3)C=C2OC)c1C` gave a GI50 of 385 nM and a TGI of 44100 nM.
In the case of `O=C1C(=O)c2cc([N+](=O)[O-])ccc2-c2ccccc21`, the GI50 is reported as 1640 nM and the TGI is reported as 3190 nM.
Work on `O=C1C=C(Nc2ccccc2)c2ncccc2C1=O` yielded a GI50 of 1570 nM and a TGI of 3160 nM.
For `O=S(=O)(NCCNc1cc(-c2cn(-c3ccccc3)nc2-c2cccc(O)c2)ccn1)c1ccc(C(F)(F)F)cc1`, the GI50 was 2050 nM and the TGI was 5020 nM.
`CCc1ccc(C2=C/C(=C/c3ccc(Cl)cc3)C(=O)N2CCc2ccc(S(N)(=O)=O)cc2)cc1` was tested, and the GI50 was 1940 nM and the TGI was 5250 nM.
Work on `COc1cc(N2CCC(N3CCN(C)CC3)CC2)ccc1Nc1ncc(Cl)c(Nc2ccccc2P(C)(C)=O)n1` yielded a GI50 of 1680 nM and a TGI of 5290 nM.
With `NC1=NC(=O)N2CC12` (stereo unspecified) the GI50 was 76800 nM and the TGI was 294000 nM.
Molecule `CN1CCN(C(=O)c2ccc(NC(=O)Nc3ccc(N(C)c4ccnc(Nc5ccc(CS(C)(=O)=O)cc5)n4)cc3)cc2)CC1` has a GI50 of 4720 nM and a TGI of over 25000 nM.
With `CCCCCCN(CCCCCC)C(=N)c1ccnc2ccccc12` the GI50 was 3130 nM and the TGI was 11100 nM.
For `O=C1C2CC3C(CC2C(=O)[N]1[Sn]([c]1ccccc1)([c]1ccccc1)[c]1ccccc1)C1(Cl)C(Cl)=C(Cl)C3(Cl)C1(Cl)Cl` (stereo unspecified), the GI50 was 120 nM and the TGI was 280 nM.
With `Cc1cc(NC(=O)c2ccc(NS(=O)(=O)CCO)cc2N2CCC3(CC2)CC3)nc(N2CCC(F)(F)CC2)n1` the GI50 was 69.4 nM and the TGI was 2930 nM.
